Data from patent US9809563B2 (GIFU University, priority 2014, dated 2017).
Structures can show the parent of a compound that is named as a salt. Where two headings read alike, the source gives them in different places.

What was measured:
[1] = male, Crl:CD (SD), rat, in vivo, po, 1 mg/kg
[2] = rat, in vivo

O=C(CN1CCCC1)Nc1ccc(C(c2ccc(NC(=O)CN3CCCC3)cc2)C2CCCCC2)cc1 [maleic acid salt, N,N′-[(cyclohexylmethylene)di-4,1-phenylene]bis[2-(1-pyrrolidinyl)acetamide] maleate]
tmax Time required to reach maximum radioactivity concentration [1]: 4.0 h | Concentrations of radioactivity in the cerebrum and cerebellum compared with blood [2]: higher than those in the blood | Radioactivity in tissues relative to plasma [2]: 100 fold | Blood concentration of radioactivity/plasma concentration of radioactivity (RB) ([2]; iv, 1 mg/kg): 10.18 | Distribution to blood cells (T) ([2]; iv, 1 mg/kg): 93.7% | Radioactivity concentration Blood (Cb) ([2]; iv, 1 mg/kg): 39.7 ng eq./mL | Radioactivity concentration Plasma (Cp) ([2]; iv, 1 mg/kg): 3.9 ng eq./mL | Blood concentration of radioactivity/plasma concentration of radioactivity (RB) ([2]; iv, 10 mg/kg): 19.52 | Distribution to blood cells (T) ([2]; iv, 10 mg/kg): 96.5% | Radioactivity concentration Blood (Cb) ([2]; iv, 10 mg/kg): 407.9 ng eq./mL | Radioactivity concentration Plasma (Cp) ([2]; iv, 10 mg/kg): 20.9 ng eq./mL | Blood concentration of radioactivity/plasma concentration of radioactivity (RB) ([2]; po, 1 mg/kg): 4.55 | Distribution to blood cells (T) ([2]; po, 1 mg/kg): 86.0% | Radioactivity concentration Blood (Cb) ([2]; po, 1 mg/kg): 10.0 ng eq./mL | Radioactivity concentration Plasma (Cp) ([2]; po, 1 mg/kg): 2.2 ng eq./mL
